Converted amounts (≈) assume the structure as drawn. Where two headings read alike, the source gives them in different places. Blank lines part the entries; values can stand above or below the molecule they belong to.
Legend:
[1] = tested on: Serum Hemolysinogenesis; assay type: in vivo, mouse (ICR strain)
Experimental: 50 male ICR strain mice, weighing 20–23 g, were randomly divided into 5 groups of 10 each. The method of administration in each group was the same as above phagocytic function). However, on the 6th day after administration, 0.2 ml 3:5 (VN) sheep red blood cell (RBC) suspension was injected i.p. into each mouse. 4 days later (day 10), blood was drawn from all animals and serum was prepared and then diluted 600 times. 1 ml diluted serum was mixed with 0.5 ml 10% sheep RBC suspension. N.S. was used as blank control. All samples were incubated at 37° C. for 30 minutes, and centrifuged (2000 rev/min) for 5 minutes. The supernatant was collected for measurement of OD540 and HC50 was calculated.

[2] = tested on: Phagocytic Function of Reticuloendothelial System; assay type: in vivo, mouse (ICR strain)
Experimental: 50 female ICR strain mice, weighing 19–24 g, were randomly divided into 5 groups of 10 each. One group was given N.S. at 20 ml/kg i.g. as a normal control. A positive control group was given CTX i.g. at 25 mg/kg on day 1 and 6. A third group was given N-(13-methyl-tetradecanoyl)-4amino-1,2-benzenediol (Sample) only at 400 mg/kg i. g. The remaining two groups were given both CTX (25 mg/kg on day 1 and 6) and Sample (100 mg/kg and 400 mg/kg, respectively). All treatments except CTX were administered daily for 9 days. 30 minutes after the last administration, 0.15 ml Yidege (1:10) was injected into the tail vein of each mouse. 1 minute and 5 minutes after, blood was drawn and 20 μl serum was mixed with 0.1% […]. OD680 was measured and the clearance index K=(1 gOD1–1 gOD2)/(t2−t1) was calculated.

[3] = tested on: Delayed Hypersensitivity; assay: Delayed hypersensitivity (sheep RBC); assay type: in vivo, mouse (ICR strain)
Experimental: 50 female ICR strain mice, weighing 18–21 g, were randomly divided into 5 groups of 10 each. The method of administration in each group was the same as above phagocytic function). However, on the 5th day after administration, each mouse was injected with 50 μl 10% sheep RBC suspension through tail vein. 4 days later (day 9), each mouse was injected intradermally with 20 μl 10 sheep RBC suspension or normal saline into metatarus of the left or right hind limbs, respectively. The digital thickness of each mouse was measured 24 hours later, and the difference in thickness between left and right digits was subject to t test analysis.

[4] = tested on: B16 mouse melanoma cell line; assay: In vitro anti-cancer efficacy, B16, SRB method, 48 hours; assay type: cell-based; details: for IC50 / IC90: Mus musculus; for IC50: read-out: B16 IC50; for IC90: read-out: B16 IC90
Experimental: (§1) The above compounds were dissolved in DMSO at stock concentration of 10 mg/ml and stored at 4° C. Before each experiment they were diluted to desired concentration with serum-free RPMI 1640 medium
2. B16 mouse melanoma cell line: B16 cells were maintained under the same condition as above. 2×10^4 cells/well were plated on 48-well plate and left for 12 hours for attachment. Cells were then treated with the test compounds and solvent control for 48 hours. Numbers of live cells were determined by SRB method. Briefly, cells were fixed with 50 μl/well 15% TCA for 1 hour, and then washed three times with double-distilled water. After drying 50 μl/well 1% SRB dye was added and reacted for 10 minutes. Plate was washed with 1% acetic acid. 0.2 ml Tris buffer (pH 9.6) was added and OD510 was recorded.
(§2) Reagents and Methods: same as in Experiment 1.

[5] = tested on: K562 human leukemia cell line; assay: In vitro anti-cancer efficacy, K562, trypan blue dye exclusion, 48 hours; assay type: cell-based; details: for IC50 / IC90: Homo sapiens, K562; for IC50: read-out: K562 IC50; for IC90: read-out: K562 IC90
Experimental: as §1
1. K562 human leukemia cell line: K562 cells were maintained in RPMI 1640 medium with 5% fetal bovine serum at 37° C. under 5% CO2 atmosphere. 4×10^4 cells/well were plated on 96-well plate. After treatment with the test compounds and solvent control (DMSO) for 48 hours, numbers of live cells were counted by trypan blue dye exclusion.
as §2

[6] = tested on: human breast carcinoma MCF7ras; assay type: in vivo; details: for Body weight D1 / Body weight D23: MCF7ras nude mice; for Body weight D1: day 1 (baseline); for Body weight D1 / Tumor W.: X ± SD; for Body weight D23 / TIR (tumor inhibition rate, (C-T)/C percentage) / Tumor W.: day 23, test 400 mg/kg gavage daily, CTX 25 mg/kg
Experimental: Thirty female Balb/c-nu/nu athymic mice, 6 weeks old, weighing 18–22 g, were housed in specific pathogen free (SPF) condition throughout the course of the experiment.
Subcutaneous transplantation of human breast carcinoma MCF7ras was carried out under aseptic condition. Tumor mass was cut into fragments (approximately 0.18×0.18×0.20 mm in size), and injected s.c. into the right mammary fat pad of each animal with a trocar. The mice were randomized into control and test groups of ten mice each. The day after transplantation, the mice in the test group were given through gavage 13-methyl-2-tetradecenoic acid at 400 mg/kg daily. The mice in two control groups were administered with CTX at 25 mg/kg and N.S. at 0.2 ml/10 g. All animals were sacrificed on day 23. The body weights and tumor weights were measured. The tumor inhibition rates (TIR) were determined by comparing the mean tumor weight of the test groups (T) with that of the control group (C) and expressed as a (C-T)/C percentage, and were analyzed by Student's test for statistical significance.

[7] = tested on: HAC cells; assay type: in vivo; details: for Body Weight after treatment / Extension Rate (of life span) / Survival Time: test 0.4 g/kg i.g. daily till death, 5-FU 25 mg/kg i.g. day 1, 3, 5
Experimental: 30 female ICR strain mice, weighing 18–21 g, were randomly divided into 3 groups of 10 each. 0.2 ml of HAC cell suspension (10^7 cells/ml) was injected intraperitoneally (i.p.) into all animals. The test group was given 2-(12-Methyl-tridecyl)-5-mercapto-1,3,4-thiadiazole at 0.4 g/kg i.g. daily till death. The positive control group was given 5-Flurouracil (5-Fu) i.g. at 25 mg/kg on day 1, 3, and 5. The negative control group was given N.S. at 20 ml/kg daily as in test groups. The length of survival of each group was recorded and rate of extension of life span was calculated and subject to t test.

[8] = tested on: Mouse cervical carcinoma U14; assay: In vivo anti-cancer efficacy, solid tumor model; details: for Tumor W.: ± SD
From the text: Mouse cervical carcinoma U14 model was used to compare in vivo anti-cancer efficacy of 15-methyl-2-hexadecenoic acid, 13-methyl-tetradecanoic acid and the chemotherapy drug cytoxan (CTX).
40 male ICR strain mice, weighing 19–22 g, were randomly divided into 4 groups of 10 each. U14 cervical carcinoma mass (about 2 mm^3 each) was transplanted subcutaneously into the right armpits of all animals following standard procedure. The test group was given 15-methyl-2-hexadecenoic acid and 13-methyl-tetradecanoic acid at 0.4 g/kg, respectively, intragastrically (i.g.) daily for 11 days. The positive control group was given a single dose of CTX i.g. (25 mg/kg) on day 1. Negative control group was given normal saline (N.S.) at 0.2 ml/10 g daily for 11 days. On the 12th day, all mice were sacrificed and the tumors were isolated and weighed. The tumor inhibition rate (TIR) was calculated and subject to t test.

[9] = assay type: in vivo, mouse (ICR strain); details: single agent i.g.: Sample (N-(13-methyl-tetradecanoyl)-4-amino-1,2-benzenediol) 0.4 g/kg; CTX 25 mg/kg
From the text: The mice were sacrificed after delayed hypersensitivity test above and the thymus and […] were collected and weighed.

[10] = tested on: ICR strain mice; assay: Acute toxicity, gavage administration; assay type: in vivo, mouse (ICR strain); details: 2.5 g/kg twice a day, 14 days monitoring
Experimental: The acute toxicity tests were assessed for two administration routes, through gavage and subcutaneous injection.
Thus, the acute toxicity test was conducted in twenty ICR strain mice, weighing 18–20 g. The Sample was given through gavage at dosage of 2.5 g/kg, twice a day. Continuous monitoring was made for 14 days.

[11] = day 12, test compounds 0.4 g/kg i.g. daily 11 days, CTX 25 mg/kg i.g. single dose
[12] = single agent i.g.: Sample (N-(13-methyl-tetradecanoyl)-4-amino-1,2-benzenediol) 0.4 g/kg, CTX 25 mg/kg, X ± SD
[13] = Table 2, unit inferred, methods same as in Experiment 1

Molecule: CC(C)CCCCCCCCCCCC(=O)Nc1ccc(O)c(O)c1 [Compound 1, N-(3,4-Dihydroxyphenyl)-13-methyl tetradecanamide]
- effects on serum hemolysinogenesis in either normal or immune-compromised mouse ([1]; in words): no obvious effects
- effect on the Clearance Index of Carbon grain in normal mouse ([2]; 400 mg/kg i.g., in words): no obvious effect
- inhibitory effect to the delayed hypersensitivity of both normal and CTX-treated mice ([3]; in words): no inhibitory effect
- IC50 ([4]; Table 1, 48 hours): 5.12 µg/mL (≈ 14.6 µM)
- IC90 ([4]; Table 1, 48 hours): 9.28 µg/mL (≈ 26.6 µM)
- IC50 ([5]; Table 1, 48 hours): 4.98 µg/mL (≈ 14.2 µM)
- IC90 ([5]; Table 1, 48 hours): 10.1 µg/mL (≈ 28.9 µM)

Molecule: CC(C)CCCCCCCCCC=CC(=O)O [13-methyl-2-tetradecenoic acid]
- Body weight D1 [6]: 20.3 ± 0.5 g
- Body weight D23 [6]: 24.4 ± 1.1 g
- TIR (tumor inhibition rate, (C-T)/C percentage) [6]: 74.3%
- Tumor W. [6]: 0.47 ± 0.31 g

Molecule: CC(C)CCCCCCCCCCCc1nnc(S)s1 [Compound 30, 2-(12-Methyl-tridecyl)-5-mercapto-1,3,4-thiadazole]
- B16 IC50 ([4]; Table 1, 48 hours): 5.16 µg/mL
- B16 IC90 ([4]; Table 1, 48 hours): 8.05 µg/mL
- Body Weight before treatment ([7]; HAC mice, X ± SD): 19.6 ± 1.3 g
- Body Weight after treatment ([7]; HAC mice): 46.5 ± 6.1 g
- Extension Rate (of life span) ([7]; HAC mice): 72.2%
- Survival Time ([7]; HAC mice, X ± SD): 16.7 ± 1.8 days
- K562 IC50 ([5]; Table 1, 48 hours): 6.10 µg/mL
- K562 IC90 ([5]; Table 1, 48 hours): 8.75 µg/mL

- melting point: 37 to 39 °C
- IC50 ([4]; Table 1, 48 hours): 20.4 µg/mL (≈ 79.6 µM)
- IC90 ([4]; Table 1, 48 hours): 35.6 µg/mL (≈ 139 µM)
- IC50 ([5]; Table 1, 48 hours): 24.6 µg/mL (≈ 95.9 µM)
- IC90 ([5]; Table 1, 48 hours): 37.5 µg/mL (≈ 146 µM)
Molecule: CC(C)(C)CCCCCCCCCCCC(=O)O [Compound 31, 13,13-Dimethyl-tetradecanoic acid]

Molecule: O=P1(N(CCCl)CCCl)NCCCO1 (centres unmarked) [CTX, cytoxan, reference compound]
- Body W. D1 ([8]; U14 mice, day 1 (baseline), X ± SD): 20.6 ± 0.5 g
- Body W. D12 ([8]; U14 mice, day 12, test compounds 0.4 g/kg i.g. daily 11 days, CTX 25 mg/kg i.g. single dose): 22.6 ± 1.2 g
- TIR (tumor inhibition rate) [8, 11]: 82.5%
- Tumor W. [8, 11]: 0.46 ± 0.17 g
- Indices of pancreas [9]: 2.287 ± 1.023 mg/10 g avoirdupois
- Indices of thymus [9]: 1.387 ± 0.701 mg/10 g avoirdupois
- HC50 [1, 12]: 22.51 ± 4.30
- K (clearance index of carbon grain) ([2]; single agent i.g.: Sample (N-(13-methyl-tetradecanoyl)-4-amino-1,2-benzenediol) 400 mg/kg daily 9 days, CTX 25 mg/kg day 1 and 6, X ± SD): 0.0238 ± 0.0161
- Difference in thickness between left and right palm [3, 12]: 1.25 ± 0.48 mm
- Body weight D1 [6]: 20.4 ± 0.4 g
- Body weight D23 [6]: 18.6 ± 0.2 g
- TIR (tumor inhibition rate, (C-T)/C percentage) [6]: 76.5%
- Tumor W. [6]: 0.43 ± 0.15 g

Molecule: O=c1[nH]cc(F)c(=O)[nH]1 [Compound 5-FU, 5-Flurouracil, reference compound]
- Body Weight after treatment ([7]; HAC mice): 43.4 ± 12.8 g
- Extension Rate (of life span) ([7]; HAC mice): 47.4%
- Survival Time ([7]; HAC mice, X ± SD): 14.3 ± 1.5 days
- Body Weight before treatment ([7]; mouse, in vivo): 19.5 ± 1.2 g

Molecule: 15-Methyl-2-hexadecanoic acid [Compound 29]
- TIR (tumor inhibition rate) [8, 11]: 81.0%
- Tumor W. [8, 11]: 0.50 ± 0.29 g
- Body W. D1 ([8]; mouse, in vivo): 20.6 ± 0.7 g
- observation after gavage [10]: No major anomaly was observed
- LD50 ([10]; mice): > 5000 mg/kg
- B16 IC50 [4, 13]: 6.8 µg/mL
- B16 IC90 [4, 13]: 10.5 µg/mL
- K562 IC50 [5, 13]: 10.1 µg/mL
- K562 IC90 [5, 13]: 17.7 µg/mL
